Reference: ChEMBL document CHEMBL4706557, “Synthesis and in vitro and in vivo biological evaluation of novel derivatives of flexicaulin A as antiproliferative agents” (Eur J Med Chem, 2020)
The source made the active and inactive calls. No cut-off for these calls is given here.

Legend:
ECa-109 cell line [1] = experiment: Induction of morphological changes in human EC109 cells assessed as appearance of contracted and rounded cells in presence of N-acetylcysteine; format: functional, cell-based
[2] = Toxicity in nude BALB/c mouse xenografted with human EC109 cells assessed as change in body weight at 20 to 40 mg/kg, ip administered every day for 14 days; format: organism-based; settings: in vivo, 336 h, dose 20-40 mg/kg, time 14 day
ECa-109 cell line [3] = experiment: Antitumor activity against human EC109 cells xenografted in BALB/c mouse assessed as reduction in tumor weight at 20 mg/kg, ip administered every day for 14 days; format: functional, organism-based; settings: time 14.0 day
ECa-109 cell line [4] = experiment: Induction of apoptosis in human EC-109 cells assessed as apoptotic rate at 3 uM preincubated with N-acetylcysteine for 4 hrs followed by compound addition and measured after 48 hrs by Annexin V-FITC/propidium iodide staining based flow cytometry (reference value: 3.8 %); format: functional
ECa-109 cell line [5] = experiment: Antiproliferative activity against human EC109 cells assessed as inhibition of cell growth incubated for 72 hrs by SRB assay; format: functional, cell-based; settings: ECa-109, 72 h
ECa-109 cell line [6] = experiment: Induction of apoptosis in human EC-109 cells xenografted in BALB/c mouse assessed as increase in Bax/Bcl-2 ratio in tumor tissue at 20 to 40 mg/kg, ip QD for 14 days by Western blotting analysis relative to control; format: functional, organism-based; settings: dose 20-40 mg/kg, time 14.0 day
[7] = Toxicity in BALB/c mouse assessed as effect on glomeruli in kidney at 20 to 40 mg/kg, ip administered once daily for 14 days by HE staining based assay; format: organism-based; settings: in vivo, 336 h, dose 20-40 mg/kg, time 14 day
ECa-109 cell line [8] = experiment: Induction of apoptosis in human EC-109 cells xenografted in BALB/c mouse assessed as increase in phosphorylated MKK4 in tumor tissue at 20 to 40 mg/kg, ip QD for 14 days by Western blotting analysis; format: functional, organism-based; settings: dose 20-40 mg/kg, time 14.0 day
ECa-109 cell line [9] = experiment: Induction of apoptosis in human EC109 cells assessed as increase in intracellular ROS level at 1.5 to 3 uM incubated for 24 hrs by DCFH-DA staining based flow cytometry analysis; format: functional, cell-based; settings: dose 1.5-3 µM
ECa-109 cell line [10] = experiment: Induction of apoptosis in human EC109 cells assessed as reduction in Bcl-2 protein expression incubated for 24 hrs by Western blot analysis; format: functional, cell-based
ECa-109 cell line [11] = experiment: Induction of apoptosis in human EC109 cells assessed as increase in intracellular ROS level at 3 uM preincubated with N-acetylcysteine for 4 hrs followed by compound addition and incubated for 24 hrs by DCFH-DA staining based flow cytometry analysis (reference value: 0.6 %); format: functional
ECa-109 cell line [12] = experiment: Induction of apoptosis in human EC109 cells assessed as increase in cleaved caspase 7 expression after 24 hrs by Western blot analysis; format: functional, cell-based
ECa-109 cell line [13] = experiment: Induction of apoptosis in human EC109 cells assessed as increase in cleaved caspase 3 expression at 3 uM incubated for 24 hrs in presence of N-acetylcysteine by Western blot analysis; format: functional, cell-based
ECa-109 cell line [14] = experiment: Antiproliferative activity against human EC109 cells assessed as inhibition of cell growth at 0.06 to 4 uM preincubated with N-acetylcysteine for 4 hrs followed by compound addition and measured after 24 hrs by SRB assay; format: functional, cell-based; settings: dose 0.06-4 µM
TE-1 = experiment: Antiproliferative activity against human TE-1 cells assessed as inhibition of cell growth incubated for 72 hrs by SRB assay; format: functional, cell-based; settings: TE-1, 72 h
ECa-109 cell line [15] = experiment: Antitumor activity against human EC109 cells xenografted in nude BALB/c mouse assessed as reduction in tumor weight at 40 mg/kg, ip administered every day for 14 days; format: functional, organism-based; settings: time 14.0 day
[16] = Toxicity in BALB/c mouse assessed as HGB at 20 mg/kg, ip administered once daily for 14 days (reference value: 153.20 +/- 3.87 g/L); format: organism-based; settings: in vivo, 336 h, time 14 day
ECa-109 cell line [17] = experiment: Induction of apoptosis in human EC109 cells assessed as increase in phosphorylated ASK1 expression incubated for 24 hrs by Western blot analysis; format: functional, cell-based
[18] = Toxicity in BALB/c mouse assessed as PLT at 20 mg/kg, ip administered once daily for 14 days (reference value: 788.60 +/- 71.35 10^9/L); format: organism-based; settings: in vivo, 336 h, time 14 day
ECa-109 cell line [19] = experiment: Induction of apoptosis in human EC109 cells assessed as increase in cleaved caspase 9 expression at 3 uM incubated for 24 hrs in presence of N-acetylcysteine by Western blot analysis; format: functional, cell-based
ECa-109 cell line [20] = experiment: Induction of mitochondrial depolarization in human EC-109 cells assessed as depolarized cell population at 3 uM preincubated with N-acetylcysteine for 4 hrs followed by compound addition and measured after 24 hrs by JC1 dye based flow cytometry (reference value: 4.2 %); format: functional
[21] = Toxicity in BALB/c mouse assessed as effect on creatinine content at 20 to 40 mg/kg, ip administered once daily for 14 days; format: organism-based; settings: in vivo, 336 h, dose 20-40 mg/kg, time 14 day
ECa-109 cell line [22] = experiment: Induction of apoptosis in human EC-109 cells xenografted in BALB/c mouse assessed as increase in cleaved caspase 3 in tumor tissue at 40 mg/kg, ip QD for 14 days by Western blotting analysis relative to control; format: functional, organism-based; settings: time 14.0 day
ECa-109 cell line [23] = experiment: Induction of apoptosis in human EC109 cells assessed as change in phosphorylated JNK expression at 3 uM incubated for 24 hrs in presence of N-acetylcysteine by Western blot analysis; format: functional, cell-based
ECa-109 cell line [24] = experiment: Induction of apoptosis in human EC-109 cells assessed as apoptotic rate at 3 uM preincubated with N-acetylcysteine for 4 hrs followed by compound addition and measured after 24 hrs by Annexin V-FITC/propidium iodide staining based flow cytometry (reference value: 5.7 %); format: functional
[25] = Toxicity in BALB/c mouse assessed as HGB at 40 mg/kg, ip administered once daily for 14 days (reference value: 153.20 +/- 3.87 g/L); format: organism-based; settings: in vivo, 336 h, time 14 day
HUVEC = experiment: Cytotoxicity against HUVEC assessed as inhibition of cell growth incubated for 72 hrs by SRB assay; format: cell-based; settings: Homo sapiens
ECa-109 cell line [26] = experiment: Induction of apoptosis in human EC109 cells assessed as increase in Bax/Bcl2 ratio at 0.75 to 3 uM after 24 hrs by Western blot analysis; format: functional, cell-based; settings: dose 0.75-3 µM
ECa-109 cell line [27] = experiment: Induction of apoptosis in human EC-109 cells assessed as apoptotic rate at 3 uM after 48 hrs by Annexin V-FITC/propidium iodide staining based flow cytometry (reference value: 3.2 %); format: functional
ECa-109 cell line [28] = experiment: Induction of apoptosis in human EC109 cells assessed as increase in BimEL expression after 24 hrs by Western blot analysis; format: functional, cell-based
ECa-109 cell line [29] = experiment: Induction of apoptosis in human EC-109 cells xenografted in nude BALB/c mouse assessed as appearance of morphological changes at 20 to 40 mg/kg, ip administered once daily for 14 days by H and E staining based histopathological analysis; format: functional, organism-based; settings: dose 20-40 mg/kg, time 14.0 day
[30] = Toxicity in BALB/c mouse assessed as MCV at 40 mg/kg, ip administered once daily for 14 days (reference value: 49.90 +/- 0.37 fL); format: organism-based; settings: in vivo, 336 h, time 14 day
[31] = Toxicity in BALB/c mouse assessed as MCV at 20 mg/kg, ip administered once daily for 14 days (reference value: 49.90 +/- 0.37 fL); format: organism-based; settings: in vivo, 336 h, time 14 day
ECa-109 cell line [32] = experiment: Induction of apoptosis in human EC-109 cells assessed as apoptotic rate at 3 uM after 24 hrs by Annexin V-FITC/propidium iodide staining based flow cytometry (reference value: 5.3 %); format: functional

With `C=C1C(=O)[C@@]23[C@H](O)C[C@@H]4C(C)(C)CCC[C@@]4(COC(C)=O)[C@@H]2[C@@H](O)C[C@H]1[C@H]3OC(=O)c1ccc(CCl)cc1` the Activity (ECa-109 cell line [1]) was “inactive”, the Activity [2] was “Non-Toxic” and the inhibition (ECa-109 cell line [3]) was “Active”. The Activity (ECa-109 cell line [4]) was 4.8%, the IC50 (ECa-109 cell line [5]) was 130 nM and the Activity (ECa-109 cell line [6]) was “Active”. The Activity [7] was “Non-Toxic”, the Activity (ECa-109 cell line [8]) was “Active” and the Activity (ECa-109 cell line [9]) was “Active”. For the same compound, the Activity (ECa-109 cell line [10]) was “Dose-dependent effect”, the Activity (ECa-109 cell line [11]) was 0.1% and the Activity (ECa-109 cell line [12]) was “Dose-dependent effect”. For the same compound, the Activity (ECa-109 cell line [13]) was “inactive”, the inhibition (ECa-109 cell line [14]) was “inactive” and the IC50 (TE-1) was 270 nM. For the same compound, the inhibition (ECa-109 cell line [15]) was “Active”, the Activity [16] was 147 g/L and the Activity (ECa-109 cell line [17]) was “Dose-dependent effect”. For the same compound, the Activity [18] was 754.8 10^9/L, the Activity (ECa-109 cell line [19]) was “inactive” and the Activity (ECa-109 cell line [20]) was 4%. The Activity [21] was “Non-Toxic”, the Activity (ECa-109 cell line [22]) was “Active” and the Activity (ECa-109 cell line [23]) was “inactive”. It also gave an Activity (ECa-109 cell line [24]) of 5.6%, an Activity [25] of 144.4 g/L and an IC50 (HUVEC) of 490 nM. The Activity (ECa-109 cell line [26]) was “Active”, the Activity (ECa-109 cell line [27]) was 97% and the Activity (ECa-109 cell line [28]) was “Dose-dependent effect”. For the same compound, the Activity (ECa-109 cell line [29]) was “Active”, the Activity [30] was 49.36 fL and the Activity [31] was 49.5 fL. The Activity (ECa-109 cell line [32]) was 45.4%.
